The test system of assay [1] is VEGF. Put plainly: Plasma VEGF in mice after intravenous injection. Format: in vivo, Swiss Webster mice. The settings on record: mouse plasma, 20 mg/kg i.v., four hours after injection; for fold induction at 20 mg/kg: iv, 4 h, read-out: VEGF Fold Increase. The gist of the method: (§1)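 Male Swiss Webster mice (29-34 g) received 20 mg/kg compound or vehicle by tail-vein injection in 5% dextrose with equimolar NaOH or meglumine. Plasma was collected 4 h later, and EPO and VEGF were measured by ELISA.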

For assay [2], the system named is C57BL/6 mice, permanent occlusion of the MCA. Put plainly: Permanent middle cerebral artery occlusion (pMCAO) in C57BL/6 mice: infarct volume and edema. The format is in vivo. Particulars: Mus musculus, iv, 24 h, C57BL/6 mice pMCAO, 20-60 mg/kg i.v., 24 hours after MCA occlusion, read-out: Percent Reduction in Infarct Volume. The gist of the method:
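Male mice (25-35 g) under avertin anaesthesia had the distal MCA coagulated through a craniotomy; compound given as single i.v. bolus (20-60 mg/kg, 6 ml/kg in 5% dextrose with equimolar meglumine or NaOH) before or up to 8 h after occlusion.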

Assay [3] deals with erythropoietin. As to the kind of experiment: Plasma EPO in mice after intravenous injection. The format is in vivo, Swiss Webster mice. The settings on record: mouse plasma, 20 mg/kg i.v., four hours after injection; for fold induction at 20 mg/kg: iv, 4 h, read-out: EPO Fold Increase. The procedure, abridged:
as §1

The subject of assay [4] is erythropoietin (EPO). Put plainly: EPO expression in Kelly neuroblastoma cells. Format: cell-based. The settings on record: for EPO: conditioned media after overnight incubation. The procedure, abridged: (§2)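 Kelly neuroblastoma cells treated overnight with compound, 1% DMSO as negative control. EPO and VEGF secreted into conditioned media measured by QUANTIKINE immunoassay.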

Assay [5] concerns vascular endothelial growth factor (VEGF). Put plainly: VEGF expression in Kelly neuroblastoma cells. The format is cell-based. The settings on record: for VEGF: conditioned media after overnight incubation. The gist of the method:
as §2

Assay [6] relates to VEGF. Put plainly: Plasma VEGF in mice after oral gavage. The format is in vivo, Swiss Webster mice. Particulars: mouse plasma, oral gavage 6-60 mg/kg, six hours. As to the method: (§3) In another series of experiments, male Swiss Webster mice (29-34 g) were administered various compounds of the present invention via oral gavage using a ball-tipped gavage needle. Animals treated by oral gavage received a 4-10 ml/kg volume of either 0.5% carboxymethyl cellulose with or without 0.1% Polysorbate 80 (vehicle control) or various doses (6-60 mg/kg) of a compound of the present invention in 0.5% CMC, with or without 0.1% Polysorbate 80. Blood samples were collected and tissues were processed as described above. Six hours after injection, the animals were anesthetized and exsanguinated.
(§4) Plasma samples were collected in EDTA and heparin coated microtainer tubes. Plasma samples were assayed for erythropoietin and VEGF using commercially-available ELISA kits purchased from R & D Systems (Minneapolis Minn.).

The subject of assay [7] is erythropoietin. Put plainly: Plasma EPO in mice after oral gavage. Format: in vivo, Swiss Webster mice. The settings on record: mouse plasma, oral gavage 6-60 mg/kg, six hours. As to the method:
as §3, §4

Assay [8] relates to erythropoietin (EPO). Put plainly: EPO expression in Hep3B cells (QUANTIKINE immunoassay of conditioned media). The settings on record: for Fold Increase Over Control: EPO, vs 1% DMSO control; for EPO: conditioned media after overnight incubation with compound. The format is cell-based, Human. The procedure, abridged:
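Confluent Hep3B cells were switched to OPTI-MEM for about 24 h (20% O2, 5% CO2, 37 °C), then treated overnight with compound or 1% DMSO vehicle. EPO secreted into the conditioned medium was measured by QUANTIKINE immunoassay.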

The test system of assay [9] is vascular endothelial growth factor (VEGF). As to the kind of experiment: Brain VEGF gene expression in mice after intravenous injection. The format is in vivo, Swiss Webster mice. The settings on record: 20 mg/kg i.v., four hours, quantitative real time PCR normalized to 18s RNA. On the procedure: The effect of compounds of the present invention on regulation of cytoprotective and neuroprotective gene expression in brain was evaluated. In one series of experiments, male Swiss Webster mice were administered by intravenous injection various compounds of the present invention. Animals treated by intravenous injection received a 6 ml/kg volume of either 5% Dextrose with an equimolar amount of Meglumine (vehicle control) or 20 mg/kg of a compound of the present invention in 5% dextrose with an equimolar amount of Meglumine Animals were euthanized four hours later and their brains placed in RNAlater (Ambion, Austin Tex.) for subsequent analysis. Tissues were homogenized in Trizol (Invitrogen, Carlsbad Calif.) using 5-mm steel beads in a Mixer Mill (Qiagen, Valencia Calif.). RNA was isolated from the Trizol solution and then further purified using RNeasy kit (Qiagen). cDNA was prepared from […] total RNA using Omniscript reverse transcriptase (Qiagen) and random hexamers. Quantitative real time PCR was performed in a 7900HT instrument (Applied Biosystems, Foster City Calif.) using TaqMan Assays-on-Demand (Applied Biosystems). Gene expression levels were normalized to that of 18s RNA.

This note sets out measurements from US9775902B2, “Compounds and methods for treatment of stroke” (FIBROGEN, INC, priority 2006, dated 2017).

Values joined by “and” are separate entries in the source; they are usually repeats but may differ in a detail not shown here. Identical values can stand only once. Like-named read-outs stand apart in the source and are kept apart here.

As for `O=C(O)CNC(=O)c1ncc2cc(Oc3ccc4c(c3)OCO4)ccc2c1O` [Compound O, {[7-(Benzo[1,3]dioxol-5-yloxy)-4-hydroxy-isoquinoline-3-carbonyl]-amino}-acetic acid], the fold induction at 20 mg/kg with VEGF [1] was determined as 2.21; in the assay with erythropoietin [3], 174. Besides, the figures for the VEGF (in the assay with VEGF [1]; in assay [5]; in the assay with VEGF [6]) were 64 pg/mL, 5235 pg/mL and 46 pg/mL, respectively. In addition, the inhibition in vivo at up to 20 mg/kg in assay [2] (compound given 0 hr) is 31%. For the same compound, the EPO in the assay with erythropoietin [3] (mouse EPO ELISA kit (**)) turned out to be 157 pg/mL; with erythropoietin (EPO) [4], 149.8 mIU/ml; in the assay with erythropoietin [7] (mouse EPO ELISA kit (**)), 83.1 pg/mL; in the assay with erythropoietin (EPO) [8] it was 97.4 mIU/ml. Further, the “EPO Fold Increase” value in the assay with erythropoietin (EPO) [4] is reported as 7.93; with erythropoietin [7], 11.87. Besides, the results for the “VEGF Fold Increase” value (in [5]; in the assay with VEGF [6]) were 3.6 and 1.48, respectively. In addition, in the assay on erythropoietin (EPO) [8], the “Fold Increase Over Control” value turned out to be 14.7.

As for `O=C(O)CNC(=O)c1ncc2cc(Oc3ccc4c(c3)CCO4)ccc2c1O` [Compound X, {[7-(2,3-Dihydro-benzofuran-5-yloxy)-4-hydroxy-isoquinoline-3-carbonyl]-amino}-acetic acid], in the assay on VEGF [1], the fold induction at 20 mg/kg came out at 2.4. For the same compound, the results for the VEGF (in the assay on VEGF [1]; in assay [5]; in the assay on VEGF [6]) were 48 pg/mL, 5751 pg/mL and 36 pg/mL, respectively. Besides, in assay [2] (compound given 0 hr), the inhibition in vivo at up to 20 mg/kg amounted to 36%. Further, the EPO in the assay with erythropoietin [3] (mouse EPO ELISA kit (**)) is 183 pg/mL; with erythropoietin (EPO) [4] it was 260.1 mIU/ml; with erythropoietin [7] (mouse EPO ELISA kit (**)) it was 41 pg/mL; with erythropoietin (EPO) [8], 126.2 mIU/ml. In addition, the “EPO Fold Increase” value with erythropoietin (EPO) [4] came out at 13.76; in the assay on erythropoietin [7], 5.86. In addition, the results for the “VEGF Fold Increase” value (in [5]; with VEGF [6]) were 3.9 and 1.16, respectively. Besides, the “Fold Increase Over Control” value in the assay on erythropoietin (EPO) [8] was determined as 19.0.

In the case of `Cc1nc(C(=O)NCC(=O)O)c(O)c2cc(Oc3ccccc3)ccc12` [Compound AA, [(4-Hydroxy-1-methyl-6-phenoxy-isoquinoline-3-carbonyl)-amino]-acetic acid], the “VEGF gene expression in brain” value in assay [9] stood at 2.1.

With `O=C(O)CNC(=O)c1nc(Oc2ccccc2F)c2ccccc2c1O` [Compound Z, {[1-(2-Fluoro-phenoxy)-4-hydroxy-isoquinoline-3-carbonyl]-amino}-acetic acid], the “VEGF gene expression in brain” value in assay [9] (20 mg/kg) is 2.2 and 2.1.

For `O=C(O)CNC(=O)c1ncc2cc(Oc3ccc(F)cc3)ccc2c1O` [Compound G, {[7-(4-Fluoro-phenoxy)-4-hydroxy-isoquinoline-3-carbonyl]-amino}-acetic acid], the fold induction at 20 mg/kg in the assay with VEGF [1] is 2.46; with erythropoietin [3] it was 270. Further, the results for the VEGF (in the assay on VEGF [1]; in assay [5]; in the assay with VEGF [6]) were 86.5 pg/mL, 2271.5 pg/mL and 110.8 pg/mL, respectively. Further, in assay [2] (compound given 4 hr after occlusion), the inhibition in vivo at up to 20 mg/kg came to 48%. The EPO in the assay with erythropoietin [3] (human EPO ELISA kit (*)) is reported as 162 mIU/ml; in the assay on erythropoietin (EPO) [4] it was 34.4 mIU/ml; with erythropoietin [7] (human EPO ELISA kit (*)), 173 mIU/ml; with erythropoietin (EPO) [8] it was 73.4 mIU/ml. Moreover, the results for the “EPO Fold Increase” value in the assay on erythropoietin (EPO) [4] and with erythropoietin [7] were 5.5 and 123.57, respectively. In addition, the “VEGF Fold Increase” value in assay [5] was 14.4; with VEGF [6], 2.58. The “Fold Increase Over Control” value in the assay with erythropoietin (EPO) [8] was found to be 5.1.

On to `O=C(O)CNC(=O)c1ncc2ccc(Sc3ccccn3)cc2c1O` [Compound AB, {[4-Hydroxy-6-(pyridin-2-ylsulfanyl)-isoquinoline-3-carbonyl]-amino}-acetic acid], for which the “VEGF gene expression in brain” value in assay [9] turned out to be 2.1.
